The values below come from patent publication US8846933B2, “N-link hydroxamic acid derivatives useful as antibacterial agents” (Pfizer Inc., priority 2009, dated 2014).

Structures can show the parent of a compound that is named as a salt.

What all share (format): cell-based
Assay [1] relates to Acinetobacter baumanii/haemolyticus: Multidrug-resistant clinical isolate (AB-3167). Briefly: MIC determination (CLSI), strain AB-3167. To be noted: unit assumed. The protocol:
The in vitro antibacterial activity of compounds described in the Examples was evaluated by minimum inhibitory concentration (MIC) testing according to Clinical and Laboratory Standards Institute (CLSI, formerly NCCLS) guidelines. See: Clinical and Laboratory Standards Institute. Methods for Dilution Antimicrobial Susceptibility Tests for Bacteria that Grow Aerobically; Approved Standard-Seventh Edition. CLSI document M7-A7 [ISBN 1-56238-587-9]. Clinical and Laboratory Standards Institute, 940 West Valley Road, Suite 1400, Wayne, Pa. 19087-1898 USA, 2006; also Clinical and Laboratory Standards Institute. Performance Standards for Antimicrobial Susceptibility Testing; Eighteenth Informational Supplement. CLSI document M100-S18 [ISBN1-56238-653-0].Clinical and Laboratory Standards Institute.
The following bacterial strains were used in these MIC determinations:
2) Acinetobacter baumanii/haemolyticus: Multidrug-resistant clinical isolate labeled as AB-3167 in Tables 4 and 5;

For assay [2], the system named is Escherichia coli EC-1: VOGEL, mouse virulent. Briefly: MIC determination (CLSI), strain EC-1. The conditions noted are these: Escherichia coli EC-1, VOGEL, mouse virulent; unit assumed. An outline of the steps:
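The mouse-virulent VOGEL isolate of E. coli, EC-1, served as test organism. Minimum inhibitory concentration was measured by CLSI dilution methodology (M7-A7; M100-S18 standards).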

For assay [3], the system named is Pseudomonas aeruginosa UI-18: Wild-type (PA-7). Briefly: MIC determination (CLSI), strain PA-7. The conditions noted are these: Pseudomonas aeruginosa UI-18, wild-type; unit assumed. An outline of the steps:
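Strain tested was P. aeruginosa UI-18, a wild-type isolate labelled PA-7. Minimum inhibitory concentrations followed CLSI dilution methodology for aerobically growing bacteria (M7-A7, M100-S18).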

Consider `CC(CCn1ccc(-c2ccc(OCCCN3CCC(F)(F)CC3)cc2)cc1=O)(C(=O)NO)S(C)(=O)=O` (racemic) [Example 4, (+/−)-4-[4-{4-[3-(4,4-Difluoropiperidin-1-yl)propoxy]phenyl}-2-oxopyridin-1(2H)-yl]-N-hydroxy-2-methyl-2-(methylsulfonyl)butanamide hydrochloride], for which the AB-3167 (MIC) in assay [1] is more than 64 µg/mL. This compound also gave an EC-1 (MIC) in assay [2] of 1 µg/mL. In assay [3], this compound returned a PA-7 (MIC) of 4 µg/mL.

Turning to `CC(CCn1ccc(-c2cc3ccccc3o2)cc1=O)(C(=O)NO)S(C)(=O)=O` (racemic) [Example 33, (+/−)-4-[4-(1-benzofuran-2-yl)-2-oxopyridin-1(2H)-yl]-N-hydroxy-2-methyl-2-(methylsulfonyl)butanamide], the AB-3167 (MIC) in assay [1] was more than 64 µg/mL. Besides, the EC-1 (MIC) in assay [2] was 1 µg/mL. The same compound displayed a PA-7 (MIC) in assay [3] of 2 µg/mL.

Compound `COc1ccc2cc(-c3ccn(CCC(C)(C(=O)NO)S(C)(=O)=O)c(=O)c3)ccc2c1` (racemic) [Example 34, (+/−)-N-hydroxy-4-[4-(6-methoxy-2-naphthyl)-2-oxopyridin-1(2H)-yl]-2-methyl-2-(methylsulfonyl)butanamide] gave an AB-3167 (MIC) in assay [1] of 8 µg/mL. The EC-1 (MIC) in assay [2] is less than 0.06 µg/mL. In assay [3], this compound displayed a PA-7 (MIC) of 1 µg/mL.

`CC(CCn1ccc(-c2ccc(-c3ccncc3)cc2)cc1=O)(C(=O)NO)S(C)(=O)=O` (racemic) [Example 35, N-Hydroxy-2-methyl-2-(methylsulfonyl)-4-[2-oxo-4-(4-pyridin-4-ylphenyl)pyridin-1(2H)-yl]butanamide]: the AB-3167 (MIC) in assay [1] is more than 64 µg/mL. In assay [2], this compound displayed an EC-1 (MIC) of 0.5 µg/mL. Also, the PA-7 (MIC) in assay [3] stood at 2 µg/mL.

Turning to `C[C@@](CCn1ccc(-c2ccc(-n3cccn3)cc2)cc1=O)(C(=O)NO)S(C)(=O)=O` [Example 1, (2R)-N-hydroxy-2-methyl-2-(methylsulfonyl)-4-{2-oxo-4-[4-(1H-pyrazol-1-yl)phenyl]pyridin-1(2H)-yl}butanamide], the AB-3167 (MIC) in assay [1] is more than 64 µg/mL. In assay [2], the EC-1 (MIC) was found to be 0.5 µg/mL. This compound also displayed a PA-7 (MIC) in assay [3] of 2 µg/mL.

In assay [1], `C[C@@](CCn1ccc(/C=C/c2ccccc2)cc1=O)(C(=O)NO)S(C)(=O)=O` [Example 2, (2R)-N-hydroxy-2-methyl-2-(methylsulfonyl)-4-{2-oxo-4-[(E)-2-phenylvinyl]pyridin-1(2H)-yl}butanamide] came in with an AB-3167 (MIC) of 64 µg/mL. In assay [2], this compound had an EC-1 (MIC) of 0.5 µg/mL. Moreover, the PA-7 (MIC) in assay [3] amounted to 2 µg/mL.

Turning to `C[C@@](CCn1ccc(CCc2ccccc2)cc1=O)(C(=O)NO)S(C)(=O)=O` [Example 3, (2R)-N-hydroxy-2-methyl-2-(methylsulfonyl)-4-[2-oxo-4-(2-phenylethyl)pyridin-1(2H)-yl]butanamide], in assay [1], the AB-3167 (MIC) is 64 µg/mL. In addition, the EC-1 (MIC) in assay [2] was found to be 1 µg/mL. The compound further returned a PA-7 (MIC) in assay [3] of 4 µg/mL.

As for `C[C@@](CCn1ccc(-c2ccc([C@H]3C[C@@H](O)C3)cc2)cc1=O)(C(=O)NO)S(C)(=O)=O` [Example 5, (2R)-N-hydroxy-4-{4-[4-(cis-3-hydroxycyclobutyl)phenyl]-2-oxopyridin-1(2H)-yl}-2-methyl-2-(methylsulfonyl)butanamide], in assay [1], the AB-3167 (MIC) was more than 64 µg/mL. This compound also gave an EC-1 (MIC) in assay [2] of 4 µg/mL. Moreover, the PA-7 (MIC) in assay [3] was 2 µg/mL.

On to `C[C@@](CCn1ccc(-c2ccc([C@H]3C[C@H](O)C3)cc2)cc1=O)(C(=O)NO)S(C)(=O)=O` [Example 6, (2R)-N-hydroxy-4-{4-[4-(trans-3-hydroxycyclobutyl)phenyl]-2-oxopyridin-1(2H)-yl}-2-methyl-2-(methylsulfonyl)butanamide], for which, in assay [1], the AB-3167 (MIC) is more than 64 µg/mL. Besides, the EC-1 (MIC) in assay [2] turned out to be 4 µg/mL. Further, the PA-7 (MIC) in assay [3] worked out at 4 µg/mL.

`C[C@@](CCn1ccc(-c2ccc(OC3CCC(O)CC3)cc2)cc1=O)(C(=O)NO)S(C)(=O)=O` (stereo partly drawn) [Example 7, (2R)-N-hydroxy-4-[4-{4-[(4-hydroxycyclohexyl)oxy]phenyl}-2-oxopyridin-1(2H)-yl]-2-methyl-2-(methylsulfonyl)butanamide]: the AB-3167 (MIC) in assay [1] came to 64 µg/mL. Also, in assay [2], the EC-1 (MIC) was 1 µg/mL. In addition, the PA-7 (MIC) in assay [3] stood at 2 µg/mL.

In the case of `C[C@@](CCn1ccc(-c2ccc(OC[C@H]3CC[C@@H](O)CC3)cc2)cc1=O)(C(=O)NO)S(C)(=O)=O` [Example 8, (2R)-N-hydroxy-4-[4-{4-[(cis-4-hydroxycyclohexyl)methoxy]phenyl}-2-oxopyridin-1(2H)-yl]-2-methyl-2-(methylsulfonyl)butanamide], the AB-3167 (MIC) in assay [1] is more than 64 µg/mL. In addition, the EC-1 (MIC) in assay [2] came to 0.5 µg/mL. Also, the PA-7 (MIC) in assay [3] came out at 1 µg/mL.

With `C[C@@](CCn1ccc(-c2ccc(OC[C@H]3CC[C@H](O)CC3)cc2)cc1=O)(C(=O)NO)S(C)(=O)=O` [Example 9, (2R)-N-hydroxy-4-[4-{4-[(trans-4-hydroxycyclohexyl)methoxy]phenyl}-2-oxopyridin-1(2H)-yl]-2-methyl-2-(methylsulfonyl)butanamide], the AB-3167 (MIC) in assay [1] is 32 µg/mL. In assay [2], the EC-1 (MIC) is 0.25 µg/mL. This compound also displayed a PA-7 (MIC) in assay [3] of 1 µg/mL.

`C[C@@](CCn1ccc(-c2ccc(OC[C@H]3CC[C@H](O)CC3)cc2F)cc1=O)(C(=O)NO)S(C)(=O)=O` [Example 10, (2R)-4-[4-{2-fluoro-4-[(trans-4-hydroxycyclohexyl)methoxy]phenyl}-2-oxopyridin-1(2H)-yl]-N-hydroxy-2-methyl-2-(methylsulfonyl) butanamide]: the AB-3167 (MIC) in assay [1] was more than 64 µg/mL. In assay [2], this compound returned an EC-1 (MIC) of 0.25 µg/mL. Moreover, the PA-7 (MIC) in assay [3] was found to be 1 µg/mL.

`CC1(O)CCC(Oc2ccc(-c3ccn(CC[C@](C)(C(=O)NO)S(C)(=O)=O)c(=O)c3)cc2)CC1` (stereo partly drawn) [Example 10-A, (2R)-N-hydroxy-4-[4-{4-[(4-hydroxy-4-methylcyclohexyl)oxy]phenyl}-2-oxopyridin-1(2H)-yl]-2-methyl-2-(methylsulfonyl)butanamide] registered an AB-3167 (MIC) in assay [1] of more than 64 µg/mL. The compound also displayed an EC-1 (MIC) in assay [2] of 0.25 µg/mL. The PA-7 (MIC) in assay [3] came to 1 µg/mL.

Consider `CC1(O)CC(COc2ccc(-c3ccn(CC[C@](C)(C(=O)NO)S(C)(=O)=O)c(=O)c3)cc2)C1` (stereo partly drawn) [Example 10-B, (2R)-N-hydroxy-4-[4-{4-[(3-hydroxy-3-methylcyclobutyl)methoxy]phenyl}-2-oxopyridin-1(2H)-yl]-2-methyl-2-(methylsulfonyl)butanamide], for which, in assay [1], the AB-3167 (MIC) was more than 64 µg/mL. In assay [2], this compound registered an EC-1 (MIC) of 0.5 µg/mL. This compound returned a PA-7 (MIC) in assay [3] of 1 µg/mL.

In turn, `C[C@@](CCn1ccc(-c2ccc(OCCCC#N)cc2)cc1=O)(C(=O)NO)S(C)(=O)=O` [Example 10-C, (2R)-4-{4-[4-(3-cyanopropoxy)phenyl]-2-oxopyridin-1(2H)-yl}-N-hydroxy-2-methyl-2-(methylsulfonyl)butanamide] came in with an AB-3167 (MIC) in assay [1] of more than 64 µg/mL. In addition, the EC-1 (MIC) in assay [2] came out at 0.5 µg/mL. In addition, in assay [3], the PA-7 (MIC) came out at 1 µg/mL.

Take `C[C@@](CCn1ccc(-c2ccc(OCC3CC(CO)C3)cc2)cc1=O)(C(=O)NO)S(C)(=O)=O` (stereo partly drawn) [Example 10-D, (2R)-N-hydroxy-4-[4-(4-{[3-(hydroxymethyl)cyclobutyl]methoxy}phenyl)-2-oxopyridin-1(2H)-yl]-2-methyl-2-(methylsulfonyl)butanamide]: the AB-3167 (MIC) in assay [1] was more than 64 µg/mL. The compound also had an EC-1 (MIC) in assay [2] of 0.25 µg/mL. In assay [3], this compound showed a PA-7 (MIC) of 1 µg/mL.

`CC(C)(O)CCCOc1ccc(-c2ccn(CCC(C)(C(=O)NO)S(C)(=O)=O)c(=O)c2)cc1` (stereo not drawn) [Example 10-E, N-hydroxy-4-[4-{4-[(4-hydroxy-4-methylpentyl)oxy]phenyl}-2-oxopyridin-1(2H)-yl]-2-methyl-2-(methylsulfonyl)butanamide] came in with an AB-3167 (MIC) in assay [1] of more than 64 µg/mL. Moreover, in assay [2], the EC-1 (MIC) was 0.5 µg/mL. Moreover, the PA-7 (MIC) in assay [3] amounted to 2 µg/mL.

For the compound `CC(CCn1ccc(-c2ccc(OC3CC(CO)C3)cc2)cc1=O)(C(=O)NO)S(C)(=O)=O` (stereo not drawn) [Example 10-F, N-hydroxy-4-[4-(4-{[3-(hydroxymethyl)cyclobutyl]oxy}phenyl)-2-oxopyridin-1(2H)-yl]-2-methyl-2-(methylsulfonyl)butanamide], the AB-3167 (MIC) in assay [1] was 64 µg/mL. The compound further showed an EC-1 (MIC) in assay [2] of 0.5 µg/mL. The PA-7 (MIC) in assay [3] turned out to be 2 µg/mL.

For the compound `CC1(O)CCC(Oc2ccc(-c3ccn(CC[C@](C)(C(=O)NO)S(C)(=O)=O)c(=O)c3)cc2)CC1` (stereo partly drawn) [Example 10-G, (2R)-N-hydroxy-4-[4-{4-[(4-hydroxy-4-methylcyclohexyl)oxy]phenyl}-2-oxopyridin-1(2H)-yl]-2-methyl-2-(methylsulfonyl)butanamide], the AB-3167 (MIC) in assay [1] turned out to be 64 µg/mL. In addition, the EC-1 (MIC) in assay [2] was 0.5 µg/mL. Besides, the PA-7 (MIC) in assay [3] was determined as 2 µg/mL.

Take `CC(C)(O)C1CC(Oc2ccc(-c3ccn(CC[C@](C)(C(=O)NO)S(C)(=O)=O)c(=O)c3)cc2)C1` (stereo partly drawn) [Example 10-H, (2R)-N-hydroxy-4-[4-(4-{[3-(1-hydroxy-1-methylethyl)cyclobutyl]oxy}phenyl)-2-oxopyridin-1(2H)-yl]-2-methyl-2-(methylsulfonyl)butanamide]: the AB-3167 (MIC) in assay [1] was more than 64 µg/mL. In addition, the EC-1 (MIC) in assay [2] was 1 µg/mL. In addition, the PA-7 (MIC) in assay [3] was found to be 2 µg/mL.
